{"source": "patent US7687252B2", "about": "“Protein crystal of human cytochrome P450 aromatase and uses thereof” (Hauptman-Woodward Medcial Research Institute, Inc., priority 2007, dated 2010)", "molecules": {"B1": {"name": "Aromatase: human cytochrome P450 aromatase purified from term placenta, SEQ ID NO:1 (protein, listed as Homo sapiens)", "chain": "MVLEMLNPIHYNITSIVPEAMPAATMPVLLLTGLFLLVWNYEGTSSIPGPGYCMGIGPLISHGRFLWMGIGSACNYYNRVYGEFMRVWISGEETLIISKSSSMFHIMKHNHYSSRFGSKLGLQCIGMHEKGIIFNNNPELWKTTRPFFMKALSGPGLVRMVTVCAESLKTHLDRLEEVTNESGYVDVLTLLRRVMLDTSNTLFLRIPLDESAIVVKIQGYFDAWQALLIKPDIFFKISWLYKKYEKSVKDLKDAIEVLIAEKRRRISTEEKLEECMDFATELILAEKRGDLTRENVNQCILEMLIAAPDTMSVSLFFMLFLIAKHPNVEEAIIKEIQTVIGERDIKIDDIQKLKVMENFIYESMRYQPVVDLVMRKALEDDVIDGYPVKKGTNIILNIGRMHRLEFFPKPNEFTLENFAKNVPYRYFQPFGFGPRGCAGKYIAMVMMKAILVTLLRRFHVKTLQGQCVESIQKIHDLSLHPDETKNMLEMIFTPRNSDRCLEH"}, "B2": {"name": "Del38arom: amino-terminal trans-membrane domain deleted P450arom, bacterial expression clone (protein, UniProt P11511 39-503, looked up, fragment)", "chain": "WNYEGTSSIPGPGYCMGIGPLISHGRFLWMGIGSACNYYNRVYGEFMRVWISGEETLIISKSSSMFHIMKHNHYSSRFGSKLGLQCIGMHEKGIIFNNNPELWKTTRPFFMKALSGPGLVRMVTVCAESLKTHLDRLEEVTNESGYVDVLTLLRRVMLDTSNTLFLRIPLDESAIVVKIQGYFDAWQALLIKPDIFFKISWLYKKYEKSVKDLKDAIEVLIAEKRRRISTEEKLEECMDFATELILAEKRGDLTRENVNQCILEMLIAAPDTMSVSLFFMLFLIAKHPNVEEAIIKEIQTVIGERDIKIDDIQKLKVMENFIYESMRYQPVVDLVMRKALEDDVIDGYPVKKGTNIILNIGRMHRLEFFPKPNEFTLENFAKNVPYRYFQPFGFGPRGCAGKYIAMVMMKAILVTLLRRFHVKTLQGQCVESIQKIHDLSLHPDETKNMLEMIFTPRNSDRCLEH"}}, "key": {"[1]": {"system": "MCF-7 cells", "assay": "Anti-proliferation assay in a MCF-7 cell line expressing P450arom (MTT)", "format": "cell-based, human"}, "[2]": {"biological_target": "T1, P450arom (Homo sapiens, UniProt P11511)", "T1 sequence (P11511 1-503)": "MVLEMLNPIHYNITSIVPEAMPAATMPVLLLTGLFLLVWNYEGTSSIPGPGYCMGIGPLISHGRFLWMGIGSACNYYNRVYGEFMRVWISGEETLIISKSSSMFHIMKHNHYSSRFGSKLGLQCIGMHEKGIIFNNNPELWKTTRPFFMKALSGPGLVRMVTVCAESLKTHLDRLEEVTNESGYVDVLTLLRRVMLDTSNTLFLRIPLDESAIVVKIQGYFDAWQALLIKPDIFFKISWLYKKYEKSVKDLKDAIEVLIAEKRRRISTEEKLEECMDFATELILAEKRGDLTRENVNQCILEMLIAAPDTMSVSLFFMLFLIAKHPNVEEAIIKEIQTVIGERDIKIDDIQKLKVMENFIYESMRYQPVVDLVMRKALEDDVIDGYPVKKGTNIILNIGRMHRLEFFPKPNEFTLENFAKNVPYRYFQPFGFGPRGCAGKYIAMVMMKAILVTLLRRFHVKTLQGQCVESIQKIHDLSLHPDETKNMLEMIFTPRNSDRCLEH", "parameters": "Crystallization and structural investigation of the full-length native P450arom; from tissue; host or cells: human term placenta (aromatase); liver (CPR, bovine or rat)", "conditions": "previously determined [51]; cited from earlier work"}, "[3]": {"biological_target": "T1, P450arom", "assay": "Detergent screen: P450arom enzyme activity and time stability", "format": "biochemical", "parameters": "Crystallization and structural investigation of the full-length native P450arom; from tissue; host or cells: human term placenta (aromatase); liver (CPR, bovine or rat)", "conditions": "detergent 1-3 mM, exchanged for Em on HA column"}, "[4]": {"biological_target": "T1, P450arom", "assay": "Absorption spectrum (Soret band) of P450arom-ligand complexes", "parameters": "Crystallization and structural investigation of the full-length native P450arom; from tissue", "conditions": "absorption spectrum of the P450arom complex"}, "[5]": {"biological_target": "T1, P450arom", "assay": "Inhibition of P450arom enzyme activity (3H-water release from [1β-3H, 4-14C] androstenedione, enzyme reconstituted with CPR)", "format": "biochemical", "parameters": "Crystallization and structural investigation of the full-length native P450arom; from tissue; host or cells: human term placenta (aromatase); liver (CPR, bovine or rat)", "conditions": "P450arom 20-30 mg/ml, final inhibitor 0.5-1.0 mM, crystallization protocol"}, "[6]": {"biological_target": "T2, Aromatase (Homo sapiens, UniProt P11511)", "T2 construct": "Crystallization and structural investigation of the full-length native P450arom; from tissue; host or cells: human term placenta (aromatase); liver (CPR, bovine or rat)", "T2 sequence (P11511 1-503)": "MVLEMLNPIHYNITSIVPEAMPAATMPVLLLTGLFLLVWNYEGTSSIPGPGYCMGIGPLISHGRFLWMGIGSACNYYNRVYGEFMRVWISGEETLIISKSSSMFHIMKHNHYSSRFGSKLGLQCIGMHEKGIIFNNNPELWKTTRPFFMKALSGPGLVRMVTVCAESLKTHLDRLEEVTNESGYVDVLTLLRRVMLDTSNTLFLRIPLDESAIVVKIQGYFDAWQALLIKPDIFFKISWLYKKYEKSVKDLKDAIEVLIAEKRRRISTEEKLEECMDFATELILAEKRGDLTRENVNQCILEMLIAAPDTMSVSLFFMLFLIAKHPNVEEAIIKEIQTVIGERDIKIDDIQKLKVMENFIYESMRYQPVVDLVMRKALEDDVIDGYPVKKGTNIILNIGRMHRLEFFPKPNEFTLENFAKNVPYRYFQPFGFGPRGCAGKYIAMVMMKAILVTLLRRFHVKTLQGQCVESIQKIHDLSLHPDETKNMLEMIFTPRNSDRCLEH", "assay": "Assay of enzyme activity (specific activity) of purified aromatase", "format": "biochemical"}, "[7]": {"system": "Aromatase", "assay": "Assay of enzyme activity (specific activity) of purified aromatase", "format": "biochemical, human", "conditions": "in BNM after detergent exchange"}}, "note": "Entries after “also recorded” stand apart in the source; their conditions may differ."}
{"molecule": "4-hydroxytamoxifen", "values": [{"measurement": "A-stimulated growth of the MCF-7 cells", "setting": "[1]; androstenedione (A) stimulated", "result": "decreased"}]}
{"molecule": "CCCCCCCCCCCCO[C@@H]1O[C@H](CO)[C@@H](O[C@H]2O[C@H](CO)[C@@H](O)[C@H](O)[C@H]2O)[C@H](O)[C@H]1O", "note": "[BDM, n-dodecyl-β-D-maltopyranoside]", "values": [{"measurement": "effect of detergent on P450arom activity", "setting": "[2]", "result": "maintained P450arom activity for weeks at 4 °C"}]}
{"molecule": "CCCCCCCCCO[C@@H]1O[C@H](CO)[C@@H](O[C@H]2O[C@H](CO)[C@@H](O)[C@H](O)[C@H]2O)[C@H](O)[C@H]1O", "note": "[BNM, n-nonyl-β-D-maltopyranoside]", "values": [{"measurement": "effect of detergent on enzyme activity and time stability", "setting": "[3]", "result": "maintained enzyme activity and time stability at least as well as BDM; also recorded: maintained the full P450arom activity"}]}
{"molecule": "CCCCCCCCO[C@@H]1O[C@H](CO)[C@@H](O)[C@H](O)[C@H]1O", "note": "[BOG, n-octyl-β-D-glucopyranoside]", "values": [{"measurement": "effect of detergent on P450arom activity", "setting": "[2]", "result": "destroy P450arom activity rapidly"}]}
{"molecule": "CCCCCCCCO[C@@H]1O[C@H](CO)[C@@H](O[C@H]2O[C@H](CO)[C@@H](O)[C@H](O)[C@H]2O)[C@H](O)[C@H]1O", "note": "[BOM, n-octyl-β-D-maltopyranoside]", "values": [{"measurement": "effect of detergent on enzyme activity and time stability", "setting": "[3]", "result": "maintained enzyme activity and time stability at least as well as BDM"}]}
{"molecule": "CC(C)(C#N)c1cc(Cn2cncn2)cc(C(C)(C)C#N)c1", "note": "[anastrozole]", "values": [{"measurement": "Soret band", "setting": "[4]", "result": 421, "unit": "nm"}]}
{"molecule": "C[C@]12CCC(=O)C=C1CC[C@@H]1[C@@H]2CC[C@]2(C)C(=O)CC[C@@H]12", "note": "[androstenedione]", "values": [{"measurement": "growth of the MCF-7 cells", "setting": "[1]; substrate steroid alone", "result": "stimulates the growth of the MCF-7 cells in a concentration-dependent manner"}, {"measurement": "Soret band", "setting": "[4]", "result": 394, "unit": "nm"}]}
{"molecule": "N#Cc1ccc(C(c2ccc(C#N)cc2)n2cncn2)cc1", "note": "[letrozole]", "values": [{"measurement": "inhibition of P450arom", "setting": "[5]", "result": "~100", "unit": "%"}, {"measurement": "DHEA-stimulated cell growth", "setting": "[1]; DHEA stimulated MCF-7 cells", "result": "inhibits the growth of DHEA-stimulated cell growth"}, {"measurement": "Soret band", "setting": "[4]", "result": 421, "unit": "nm"}]}
{"molecule": "B1", "values": [{"measurement": "turnover number", "setting": "[6]; calculated", "result": "~6", "unit": "min⁻¹"}, {"measurement": "specific activity retained", "setting": "[6]; in detergents BNM and BDM, 4° C. for weeks", "result": "80-90%"}, {"measurement": "specific activity of the purified enzyme", "setting": "[6]; typical / over a large number of purifications, androstenedione as substrate", "result": "20 to 100", "unit": "nmol/min/mg"}, {"measurement": "specific activity", "setting": "[6]; with Em as the detergent", "result": "50 to 100", "unit": "nmol/min/mg"}, {"measurement": "specific activity", "setting": "[7]", "result": "10 to 50", "unit": "nmol/min/mg"}]}
{"molecule": "B2", "values": [{"measurement": "specific activity", "setting": "[7]", "result": "< 1", "unit": "nmol/min/mg"}]}
